# Columns and labels:
# [1] = system: COX-2 mRNA in NOX1-b expressing cells; conditions: final concentration of 1 μM, RT-PCR 3 hours thereafter; EtBr staining
# Protocol: Using the mRNA extraction method shown in Example 1, respective cDNA samples were prepared from the vacant vector expressing cells and NOX1-b expressing cells. By synthesizing probe primers coding for the COX-2-specific sequences represented by SEQ ID NO:9 and SEQ ID NO:10, an RT-PCT reaction of 94° C. for 1 minute and 45 cycles consisting of 94° C. for 10 seconds, 55° C. for 20 seconds and 72° C. for 30 seconds, was carried out on each of the vacant vector expressing cell- and NOX1-b expressing cells-derived samples using a DNA polymerase (r Taq DNA polymerase; mfd. by Toyobo).
# NOX1-b = NOX1-b (Homo sapiens, UniProt Q9Y5S8); conditions: 1 μM added 30 minutes before the addition of cytochrome C; NOX1-b expressing NIH3T3 cells
# Protocol: Using the NOX1-b expressing cells shown in Example 3, the ROS productivity was measured by a cytochrome C reduction method. In order to measure ROS by the cytochrome C reduction method, vacant vector expressing cells and NOX1-b expressing cells were respectively dispensed in 0.5×10^6 cells/100 μl/well portions into a 96 well multi-well plate for cell culture (to be referred to as multi-well plate). About 12 hours thereafter, 4.62 mg/ml of cytochrome C was added and mixed in 100 μl/well portions under respective conditions, and then the multi-well plate was set on a plate reader to periodically measurement of absorbance at 550 nm.
# [2] = system: TNF-α mRNA in NOX1-b expressing cells; conditions: pretreated for 3 hours with 1 μM; RT-PCR, EtBr staining
# Protocol: On each of the cDNA samples prepared in Example 6 and using a DNA polymerase (r Taq DNA polymerase; mfd. by Toyobo), RT-PCR reaction of 94° C. for 1 minute, 45 cycles of consisting of 94° C. for 10 seconds and 55° C. for 20 seconds and 72° C. for 30 seconds, was carried out.
# NOX1-b, sequence (Q9Y5S8 1-515 isoform Q9Y5S8-3): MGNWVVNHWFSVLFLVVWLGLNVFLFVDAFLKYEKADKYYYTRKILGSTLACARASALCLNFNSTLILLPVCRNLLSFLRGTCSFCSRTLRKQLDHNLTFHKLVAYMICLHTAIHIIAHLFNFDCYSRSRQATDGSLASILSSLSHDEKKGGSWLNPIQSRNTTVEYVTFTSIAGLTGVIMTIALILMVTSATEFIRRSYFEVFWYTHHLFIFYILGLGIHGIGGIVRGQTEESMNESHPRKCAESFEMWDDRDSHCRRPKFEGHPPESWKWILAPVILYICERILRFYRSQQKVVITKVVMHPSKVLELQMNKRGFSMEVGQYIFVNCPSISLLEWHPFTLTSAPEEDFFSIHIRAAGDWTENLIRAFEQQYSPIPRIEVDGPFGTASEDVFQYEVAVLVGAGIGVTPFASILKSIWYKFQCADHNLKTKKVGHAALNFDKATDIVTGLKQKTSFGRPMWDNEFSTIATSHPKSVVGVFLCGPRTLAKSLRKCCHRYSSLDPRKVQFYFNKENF
# NOX1-b, sequence (Q61462 whole entry partner): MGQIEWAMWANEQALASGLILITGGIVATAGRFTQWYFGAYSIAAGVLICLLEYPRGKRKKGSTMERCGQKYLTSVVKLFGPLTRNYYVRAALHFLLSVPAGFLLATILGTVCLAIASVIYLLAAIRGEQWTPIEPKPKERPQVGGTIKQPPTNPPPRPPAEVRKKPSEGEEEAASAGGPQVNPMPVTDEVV
smiles,measurement,setting,value
"c1ccc2c(c1)[I+]c1ccccc1-2 [DPI, diphenylene iodonium chloride]",induction of COX-2 expression by NOX1-b expression,[1],inhibited
same,"ROS producing activity (absorbance at 550 nm, integrated values after 1 hour)",NOX1-b,considerably inhibited
same,induction of TNF-α expression in NOX1-b expressing cells,[2],inhibited

# Reference: US20050124056A1, “Novel oxidase” (priority 2002, published 2005)
